Experimental data from ChEMBL document CHEMBL5370528, “Synthesis-accessibility-oriented design of c-Jun N-terminal kinase 1 inhibitor” (Eur J Med Chem, 2023).
pIC50: −log10 of the molar value. Active and inactive are the calls of the source. No cut-off for these calls is given here.

How the values were obtained:
[1] = target: CDK6/cyclin D1 (Homo sapiens) (UniProt P24385+Q00534); experiment: Inhibition of CDK6/Cyclin D1 (unknown origin) at 1 uM preincubated for 10 mins followed by substrate addition and measured after 60 mins in the presence of ATP by ADP-Glo reagent based luminescence assay; assay type: protein-complex assay; details: time 70.0 min
[2] = target: T1, c-Jun N-terminal kinase, JNK (Homo sapiens) (UniProt P45983+P53779+P45984); experiment: Inhibition of JNK in human BEAS-2B cells assessed as inhibition of anisomycin-activated c-Jun phosphorylation preincubated for 1 hrs followed by anisomycin activation for 1 hrs by Western blot analysis; assay type: cell-based; details: dose 2-50 µM, time 2.0 hrs
[3] = target: c-Jun N-terminal kinase (Mus musculus) (UniProt Q91Y86+Q9WTU6+Q61831); experiment: Inhibition of JNK in mouse NIH-3T3 cells assessed as inhibition of anisomycin-activated c-Jun phosphorylation preincubated for 1 hrs followed by anisomycin activation for 1 hrs by Western blot analysis; assay type: cell-based; details: NIH3T3, dose 2-50 µM, time 2.0 hrs
[4] = target: T1, c-Jun N-terminal kinase, JNK (Homo sapiens); experiment: Inhibition of JNK in human NCI-H1299 cells assessed as inhibition of anisomycin-activated c-Jun phosphorylation preincubated for 1 hrs followed by anisomycin activation for 1 hrs by Western blot analysis; assay type: cell-based; details: dose 2-50 µM, time 2.0 hrs
[5] = target: T2, Mitogen-activated protein kinase 9 (Homo sapiens, UniProt P45984); experiment: Inhibition of N-terminal GST-tagged recombinant full length human JNK2 expressed in baculovirus infected Sf9 cells using IPTTPITTTYFFFKKK as substrate at 0.1 uM incubated for 60 mins in the presence of ATP by ADP-Glo reagent based luminescence assay relative to control
Target sequence in this assay (P45984 whole entry, looked up): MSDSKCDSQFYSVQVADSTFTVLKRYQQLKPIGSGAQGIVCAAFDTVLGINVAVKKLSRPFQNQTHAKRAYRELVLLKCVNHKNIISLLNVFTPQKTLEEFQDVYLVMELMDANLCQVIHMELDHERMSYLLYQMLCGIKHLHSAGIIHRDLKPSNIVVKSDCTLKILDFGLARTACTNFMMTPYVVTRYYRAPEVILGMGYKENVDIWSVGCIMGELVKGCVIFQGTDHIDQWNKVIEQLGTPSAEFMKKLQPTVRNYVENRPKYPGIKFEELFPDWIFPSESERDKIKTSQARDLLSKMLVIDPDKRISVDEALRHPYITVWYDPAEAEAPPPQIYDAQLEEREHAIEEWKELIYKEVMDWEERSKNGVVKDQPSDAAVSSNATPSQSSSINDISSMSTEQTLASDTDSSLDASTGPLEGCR

[6] = Clearance in Sprague-Dawley rat at 5 mg/kg, iv by HPLC-UV analysis; assay type: ADME, organism-based; details: in vivo
[7] = Apparent volume of distribution in Sprague-Dawley rat at 5 mg/kg, iv by HPLC-UV analysis; assay type: ADME, organism-based; details: in vivo, read-out: Vz
Mus musculus [8] = experiment: Anti-fibrotic activity in bleomycin-induced C57BL/6 mouse model of pulmonary fibrosis assessed as increase in respiratory function by measuring expiratory volume at 25 to 75 mg/kg, po administered twice a day for 3 weeks by spirometry analysis; assay type: functional, organism-based; details: dose 25-75 mg/kg
Mus musculus [9] = experiment: Anti-fibrotic activity in bleomycin-induced C57BL/6 mouse model of pulmonary fibrosis assessed as reduction in mortality rate at 25 mg/kg, po administered twice a day for 3 weeks (reference value: 43%); assay type: functional; set-up: scale not given: the % may be the effect or the level left
[10] = target: T3, Mitogen-activated protein kinase 8 (Homo sapiens, UniProt P45983); experiment: Inhibition of N-terminal GST-tagged recombinant full length human JNK1 expressed in baculovirus infected Sf9 insect cells using IPTTPITTTYFFFKKK as substrate at 1 uM incubated for 60 mins in the presence of ATP by ADP-Glo reagent based luminescence assay relative to control
[11] = target: T2, Mitogen-activated protein kinase 9; experiment: Inhibition of N-terminal GST-tagged recombinant full length human JNK2 expressed in baculovirus infected Sf9 cells using IPTTPITTTYFFFKKK as substrate at 1 uM incubated for 60 mins in the presence of ATP by ADP-Glo reagent based luminescence assay relative to control
Target sequence in this assay (P45984 whole entry, looked up): as above

Mus musculus [12] = experiment: Anti-fibrotic activity in bleomycin-induced C57BL/6 mouse model of pulmonary fibrosis assessed as alleviation of neutrophil infiltration in lungs at 25 to 75 mg/kg, po administered twice a day for 3 weeks by H&E staining based analysis; assay type: functional, organism-based; details: dose 25-75 mg/kg
[13] = target: CDK2/Cyclin A2 (Homo sapiens) (UniProt P24941+P20248); experiment: Inhibition of CDK2/Cyclin A2 (unknown origin) at 1 uM preincubated for 10 mins followed by substrate addition and measured after 60 mins in the presence of ATP by ADP-Glo reagent based luminescence assay relative to control; assay type: protein-complex assay; details: time 70.0 min
Mus musculus [14] = experiment: Anti-fibrotic activity in bleomycin-induced C57BL/6 mouse model of pulmonary fibrosis assessed as increase in respiratory function by measuring minute volume at 25 to 75 mg/kg, po administered twice a day for 3 weeks by spirometry analysis; assay type: functional, organism-based; details: dose 25-75 mg/kg
Mus musculus [15] = experiment: Anti-fibrotic activity in bleomycin-induced C57BL/6 mouse model of pulmonary fibrosis assessed as reduction in alveolar space collapse at 25 to 75 mg/kg, po administered twice a day for 3 weeks by Masson's trichome staining based analysis; assay type: functional, organism-based; details: dose 25-75 mg/kg
[16] = Apparent volume of distribution in Sprague-Dawley rat at 75 mg/kg, po by HPLC-UV analysis; assay type: ADME, organism-based; details: in vivo
[17] = target: T4, Mitogen-activated protein kinase 10 (Homo sapiens, UniProt P53779); experiment: Inhibition of N-terminal GST-tagged recombinant full length human JNK3 expressed in baculovirus infected Sf9 cells using IPTTPITTTYFFFKKK as substrate incubated for 60 mins in the presence of ATP by ADP-Glo reagent based luminescence assay
Mus musculus [18] = experiment: Anti-fibrotic activity in bleomycin-induced C57BL/6 mouse model of pulmonary fibrosis assessed as alleviation of alveolar collapse in lungs at 25 to 75 mg/kg, po administered twice a day for 3 weeks by H&E staining based analysis; assay type: functional, organism-based; details: dose 25-75 mg/kg
[19] = target: T4, Mitogen-activated protein kinase 10; experiment: Inhibition of N-terminal GST-tagged recombinant full length human JNK3 expressed in baculovirus infected Sf9 cells using IPTTPITTTYFFFKKK as substrate at 0.1 uM incubated for 60 mins in the presence of ATP by ADP-Glo reagent based luminescence assay relative to control
[20] = target: T3, Mitogen-activated protein kinase 8; experiment: Inhibition of N-terminal GST-tagged recombinant full length human JNK1 expressed in baculovirus infected Sf9 insect cells using IPTTPITTTYFFFKKK as substrate at 0.1 uM incubated for 60 mins in the presence of ATP by ADP-Glo reagent based luminescence assay relative to control
Mus musculus [21] = experiment: Anti-fibrotic activity in bleomycin-induced C57BL/6 mouse model of pulmonary fibrosis assessed as increase in respiratory function by measuring tidal volume at 25 to 75 mg/kg, po administered twice a day for 3 weeks by spirometry analysis; assay type: functional, organism-based; details: dose 25-75 mg/kg
[22] = Oral bioavailability in Sprague-Dawley rat at 75 mg/kg by HPLC-UV analysis; assay type: ADME, organism-based; details: in vivo
[23] = Cmax in Sprague-Dawley rat at 75 mg/kg, po by HPLC-UV analysis; assay type: ADME, organism-based; set-up: dose 75 mg/kg, route po; details: in vivo
Mus musculus [24] = experiment: Anti-fibrotic activity in bleomycin-induced C57BL/6 mouse model of pulmonary fibrosis assessed as protection against BLM-induced death at 75 mg/kg, po administered twice a day for 3 weeks relative to control; assay type: functional
[25] = MRT(0 to infinity) in Sprague-Dawley rat at 5 mg/kg, iv by HPLC-UV analysis; assay type: ADME, organism-based; details: in vivo
[26] = AUC(0 to infinity) in Sprague-Dawley rat at 5 mg/kg, iv by HPLC-UV analysis; assay type: ADME, organism-based; set-up: dose 5 mg/kg, route iv; details: in vivo
[27] = target: Cyclin-dependent kinase 2/cyclin E1 (Homo sapiens) (UniProt P24864+P24941); experiment: Inhibition of CDK2/Cyclin E1 (unknown origin) at 1 uM preincubated for 10 mins followed by substrate addition and measured after 60 mins in the presence of ATP by ADP-Glo reagent based luminescence assay relative to control; assay type: protein-complex assay; details: time 70.0 min
[28] = target: T2, Mitogen-activated protein kinase 9; experiment: Inhibition of N-terminal GST-tagged recombinant full length human JNK2 expressed in baculovirus infected Sf9 cells using IPTTPITTTYFFFKKK as substrate incubated for 60 mins in the presence of ATP by ADP-Glo reagent based luminescence assay
Target sequence in this assay (P45984 whole entry): as the sequence (P45984 whole entry, looked up) above

T3 sequence (P45983 whole entry): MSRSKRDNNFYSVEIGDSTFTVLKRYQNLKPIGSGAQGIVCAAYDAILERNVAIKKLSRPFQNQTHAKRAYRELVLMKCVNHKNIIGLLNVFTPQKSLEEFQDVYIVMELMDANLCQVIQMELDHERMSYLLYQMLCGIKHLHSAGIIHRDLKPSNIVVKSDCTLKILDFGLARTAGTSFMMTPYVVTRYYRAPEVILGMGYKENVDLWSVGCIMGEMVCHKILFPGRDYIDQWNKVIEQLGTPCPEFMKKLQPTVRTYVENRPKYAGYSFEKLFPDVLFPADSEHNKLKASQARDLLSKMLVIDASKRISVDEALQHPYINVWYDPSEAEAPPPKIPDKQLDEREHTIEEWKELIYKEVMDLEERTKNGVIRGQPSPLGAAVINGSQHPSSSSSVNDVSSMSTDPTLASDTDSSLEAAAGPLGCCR
T4 sequence (P53779 whole entry): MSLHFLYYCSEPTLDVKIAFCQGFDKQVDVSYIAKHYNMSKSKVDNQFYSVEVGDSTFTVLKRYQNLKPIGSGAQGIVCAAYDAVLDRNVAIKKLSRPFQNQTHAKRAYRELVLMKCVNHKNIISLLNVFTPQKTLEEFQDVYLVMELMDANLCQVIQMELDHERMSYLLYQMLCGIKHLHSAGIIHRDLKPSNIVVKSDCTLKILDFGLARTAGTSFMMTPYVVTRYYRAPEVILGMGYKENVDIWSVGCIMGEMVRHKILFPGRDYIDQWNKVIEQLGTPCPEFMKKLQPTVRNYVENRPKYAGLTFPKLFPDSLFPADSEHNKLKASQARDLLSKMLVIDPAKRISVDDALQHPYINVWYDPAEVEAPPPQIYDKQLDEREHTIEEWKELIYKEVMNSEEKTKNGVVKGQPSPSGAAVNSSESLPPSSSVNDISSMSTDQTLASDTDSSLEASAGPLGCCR
Chain of c-Jun N-terminal kinase (Mus musculus) (Q61831 whole entry, looked up): as the sequence (P53779 whole entry) above, with Q27H, Y32S, D267S, A345V, G412S, S432A counted along it
Chain of c-Jun N-terminal kinase (Mus musculus) (Q91Y86 whole entry, looked up): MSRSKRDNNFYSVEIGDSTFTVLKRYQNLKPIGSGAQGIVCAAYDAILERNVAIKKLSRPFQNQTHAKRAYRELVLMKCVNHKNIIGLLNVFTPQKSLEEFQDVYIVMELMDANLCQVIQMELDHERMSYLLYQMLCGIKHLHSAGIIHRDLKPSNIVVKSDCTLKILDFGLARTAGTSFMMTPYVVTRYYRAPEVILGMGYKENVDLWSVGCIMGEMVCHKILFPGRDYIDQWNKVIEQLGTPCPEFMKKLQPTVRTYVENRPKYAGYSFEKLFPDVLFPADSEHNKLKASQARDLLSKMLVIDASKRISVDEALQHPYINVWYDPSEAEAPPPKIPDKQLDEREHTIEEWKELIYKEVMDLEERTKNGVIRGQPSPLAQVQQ
Chain of c-Jun N-terminal kinase (Mus musculus) (Q9WTU6 whole entry, looked up): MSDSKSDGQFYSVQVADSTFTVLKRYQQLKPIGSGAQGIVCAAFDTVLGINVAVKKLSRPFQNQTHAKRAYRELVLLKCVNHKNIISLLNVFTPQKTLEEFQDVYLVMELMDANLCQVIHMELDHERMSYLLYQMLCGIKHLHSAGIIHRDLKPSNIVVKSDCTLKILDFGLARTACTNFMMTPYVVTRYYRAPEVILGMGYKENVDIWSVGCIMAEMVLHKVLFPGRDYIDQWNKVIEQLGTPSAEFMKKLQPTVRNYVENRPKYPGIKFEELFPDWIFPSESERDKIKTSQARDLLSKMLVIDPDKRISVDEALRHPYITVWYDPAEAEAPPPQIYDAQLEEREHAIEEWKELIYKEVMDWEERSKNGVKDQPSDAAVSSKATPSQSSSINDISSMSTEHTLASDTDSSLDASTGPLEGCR

SMILES: CC(C)(C)CNc1ncc(Br)c(Nc2ccccc2C(N)=O)n1
- inhibition [1]: 17%
- inhibition [2]: Dose-Dependent Effect
- inhibition [3]: Dose-Dependent Effect
- inhibition [4]: Dose-Dependent Effect
- inhibition [5]: 43%
- clearance [6]: 131 mL/min/kg
- Vd [7]: 20.3 L/kg
- Activity (Mus musculus [8]): Active
- Activity (Mus musculus [9]): 14%
- inhibition [10]: 99%
- inhibition [11]: 101%
- Activity (Mus musculus [12]): Active
- inhibition [13]: 36.1%
- Activity (Mus musculus [14]): Active
- Activity (Mus musculus [15]): Active
- Vz [16]: 230.54 L/kg
- pIC50 [17]: 7.48
- Activity (Mus musculus [18]): Active
- inhibition [19]: 78.5%
- inhibition [20]: 71.1%
- Activity (Mus musculus [21]): Active
- bioavailability [22]: 15.3%
- Cmax [23]: 488 ng/mL
- Activity (Mus musculus [24]): 100%
- MRT inf [25]: 2.85 h
- AUC(0-inf) [26]: 868 ng·h/mL
- inhibition [27]: 60.3%
- pIC50 [28]: 6.95
